Data published in paper PMC8842224 (Journal of Medicinal Chemistry, 2022).
Read-outs that look alike come from different tables or passages of the source.

Columns and labels:
[1] = target: human A2AAR (Homo sapiens, UniProt P29274)
[2] = target: T1, human A1AR (Homo sapiens, UniProt P30542); details: for Exp absolute binding affinity (ΔGbind): experimental, A1AR
T1 sequence (P30542 1-326): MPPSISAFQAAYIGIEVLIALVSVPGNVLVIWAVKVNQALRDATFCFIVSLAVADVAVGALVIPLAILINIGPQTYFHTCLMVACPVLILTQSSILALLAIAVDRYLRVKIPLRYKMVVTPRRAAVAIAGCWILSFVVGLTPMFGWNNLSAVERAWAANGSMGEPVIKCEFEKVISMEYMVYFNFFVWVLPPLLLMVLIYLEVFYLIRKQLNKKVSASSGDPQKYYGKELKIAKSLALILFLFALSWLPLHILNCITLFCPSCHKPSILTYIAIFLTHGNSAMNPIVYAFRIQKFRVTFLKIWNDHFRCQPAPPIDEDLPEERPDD

[3] = target: T2, human A2BAR (Homo sapiens, UniProt P29275); details: read-out: hA2B Ki; displacement of specific [3H]DPCPX binding, human HEK-293 cells, ± SEM, n = 3
T2 sequence (P29275 1-332): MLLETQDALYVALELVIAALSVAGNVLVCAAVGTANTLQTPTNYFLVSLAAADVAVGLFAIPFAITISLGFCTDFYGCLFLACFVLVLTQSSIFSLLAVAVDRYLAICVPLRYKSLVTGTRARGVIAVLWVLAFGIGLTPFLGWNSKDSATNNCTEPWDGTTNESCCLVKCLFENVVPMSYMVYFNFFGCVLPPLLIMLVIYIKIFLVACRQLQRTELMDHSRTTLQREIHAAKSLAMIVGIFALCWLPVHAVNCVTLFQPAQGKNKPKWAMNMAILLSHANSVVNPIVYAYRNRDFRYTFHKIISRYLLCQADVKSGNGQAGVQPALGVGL

[4] = read-out: hA2A Ki, displacement of specific [3H]ZM241385 binding, human HeLa cells, ± SEM, n = 3
[5] = read-out: hA1 Ki, displacement of specific [3H]DPCPX binding, human CHO cells, ± SEM, n = 3
[6] = read-out: ki_a1, supplementary csv, unit inferred
[7] = read-out: ki_a2a, supplementary csv, unit inferred

human A2AAR, sequence (P29274 whole entry): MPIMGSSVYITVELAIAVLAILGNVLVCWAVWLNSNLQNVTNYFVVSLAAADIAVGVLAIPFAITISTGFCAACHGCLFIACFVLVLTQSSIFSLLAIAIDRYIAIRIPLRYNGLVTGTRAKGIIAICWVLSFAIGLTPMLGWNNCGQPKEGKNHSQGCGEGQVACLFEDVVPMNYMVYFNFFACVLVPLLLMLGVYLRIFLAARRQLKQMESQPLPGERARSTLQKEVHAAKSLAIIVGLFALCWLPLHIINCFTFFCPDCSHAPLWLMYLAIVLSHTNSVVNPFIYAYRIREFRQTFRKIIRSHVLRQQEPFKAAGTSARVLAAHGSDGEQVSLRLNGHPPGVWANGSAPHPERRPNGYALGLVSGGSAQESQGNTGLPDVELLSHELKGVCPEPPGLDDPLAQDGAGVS

Compound	Ki [1, 4]	Ki [2, 5]	Ki [3]	other results
N#Cc1c(-c2ccccc2)nc(N)nc1-c1ccccc1 [18a]	0.0186 ± 0.0034 µM			
N#Cc1c(-c2ccccc2)nc(N)nc1-c1ccsc1 [18aa]	0.0206 ± 0.0027 µM	0.00525 ± 0.00216 µM		
N#Cc1c(-c2ccccc2)nc(N)nc1-c1ccncc1 [18ab]	0.676 ± 0.027 µM	0.216 ± 0.023 µM		Ki [2, 6]: 0.216 µM; Ki [1, 7]: 0.677 µM
N#Cc1c(-c2ccccc2)nc(N)nc1-c1cccnc1 [18ac]	0.0364 ± 0.0057 µM	0.0196 ± 0.00147 µM		
N#Cc1c(-c2ccccc2)nc(N)nc1-c1ccc2ccccc2c1 [18af]	0.00578 ± 0.00116 µM	0.00827 ± 0.0021 µM		
N#Cc1c(-c2ccccc2)nc(N)nc1-c1ccc(-c2ccccc2)cc1 [18ag]		6.5 ± 0.451 µM		
N#Cc1c(-c2cccc(Cl)c2)nc(N)nc1-c1cccc(Cl)c1 [18ah]	0.0353 ± 0.0077 µM	0.00482 ± 0.00037 µM	0.0736 ± 0.0068 µM	
N#Cc1c(-c2cccc(Cl)c2)nc(N)nc1-c1cc(Cl)cc(Cl)c1 [18ai]	0.19 ± 0.022 µM	0.00781 ± 0.00143 µM		
N#Cc1c(-c2cccc(Cl)c2)nc(N)nc1-c1ccc2c(c1)OCO2 [18aj]	0.101 ± 0.015 µM	0.00561 ± 0.00074 µM	0.386 ± 0.015 µM	Ki [1, 7]: 0.102 µM
N#Cc1c(-c2ccc(F)cc2)nc(N)nc1-c1ccc2c(c1)OCO2 [18ak]	0.061 ± 0.0049 µM	0.0125 ± 0.0023 µM		
COc1ccc(-c2nc(N)nc(-c3ccc(OC)cc3)c2C#N)cc1 [18al]		0.0743 ± 0.0034 µM		
N#Cc1c(-c2ccc(F)cc2)nc(N)nc1-c1ccco1 [18am]	0.00572 ± 0.00026 µM	0.00908 ± 0.00116 µM	0.0139 ± 0.0037 µM	
N#Cc1c(-c2ccccc2)nc(N)nc1-c1ccccc1F [18b]	0.0176 ± 0.0028 µM	0.00644 ± 0.00125 µM		
COc1ccccc1-c1nc(N)nc(-c2ccccc2)c1C#N [18d]	0.0177 ± 0.0021 µM	0.0131 ± 0.0032 µM		
N#Cc1c(-c2ccccc2)nc(N)nc1-c1cccc(F)c1 [18e]	0.0195 ± 0.0033 µM	0.0134 ± 0.0041 µM	0.186 ± 0.011 µM	
N#Cc1c(-c2ccccc2)nc(N)nc1-c1cccc(Cl)c1 [18f]	0.0155 ± 0.0024 µM	0.00425 ± 0.0011 µM	0.177 ± 0.013 µM	
COc1cccc(-c2nc(N)nc(-c3ccccc3)c2C#N)c1 [18g]	0.00691 ± 0.00152 µM	0.00208 ± 0.00016 µM	0.0312 ± 0.0063 µM	
N#Cc1c(-c2ccccc2)nc(N)nc1-c1cccc(O)c1 [18h]	0.0102 ± 0.00352 µM	0.00149 ± 0.00043 µM	0.0501 ± 0.0082 µM	
N#Cc1cccc(-c2nc(N)nc(-c3ccccc3)c2C#N)c1 [18i]	0.0841 ± 0.0117 µM	0.00649 ± 0.00114 µM		
N#Cc1c(-c2ccccc2)nc(N)nc1-c1ccc(F)cc1 [18j]	0.0163 ± 0.0029 µM	0.00419 ± 0.00116 µM		
N#Cc1c(-c2ccccc2)nc(N)nc1-c1ccc(Br)cc1 [18k]	0.0219 ± 0.005 µM	0.00919 ± 0.00281 µM		

Compound	Ki [1, 4]	Ki [2, 5]	Ki [3]	other results
COc1ccc(-c2nc(N)nc(-c3ccccc3)c2C#N)cc1 [18l]	0.046 ± 0.0032 µM	0.00716 ± 0.00203 µM		
N#Cc1c(-c2ccccc2)nc(N)nc1-c1ccc(O)cc1 [18m]	0.0265 ± 0.0016 µM	0.00414 ± 0.00055 µM		
Cc1ccc(-c2nc(N)nc(-c3ccccc3)c2C#N)cc1 [18n]	0.00893 ± 0.00012 µM	0.00538 ± 0.00136 µM		
N#Cc1c(-c2ccccc2)nc(N)nc1-c1ccc(F)cc1F [18o]	0.0155 ± 0.00221 µM	0.004 ± 0.00182 µM		
COc1ccc(-c2nc(N)nc(-c3ccccc3)c2C#N)c(OC)c1 [18q]	0.0102 ± 0.00183 µM	0.00398 ± 0.00074 µM		
N#Cc1c(-c2ccccc2)nc(N)nc1-c1cc(Cl)cc(Cl)c1 [18s]	0.0954 ± 0.0165 µM	0.0159 ± 0.00211 µM		
COc1cc(OC)cc(-c2nc(N)nc(-c3ccccc3)c2C#N)c1 [18t]	0.00173 ± 0.00033 µM	0.00258 ± 0.00067 µM	0.0451 ± 0.0037 µM	
N#Cc1c(-c2ccccc2)nc(N)nc1-c1ccc2c(c1)OCO2 [18u]	0.0102 ± 0.00109 µM		0.0433 ± 0.0042 µM	
COc1cc(-c2nc(N)nc(-c3ccccc3)c2C#N)cc(OC)c1OC [18v]	0.00095 ± 7e-05 µM	0.00258 ± 5e-05 µM		
N#Cc1c(-c2ccccc2)nc(N)nc1-c1ccco1 [18x]	0.0101 ± 0.0037 µM	0.0097 ± 0.0012 µM	0.0218 ± 0.0027 µM	
N#Cc1c(-c2ccccc2)nc(N)nc1-c1cccs1 [18y]	0.0249 ± 0.0046 µM	0.0173 ± 0.0044 µM	0.0406 ± 0.0037 µM	
N#Cc1c(-c2ccccc2)nc(N)nc1-c1ccoc1 [18z]	0.0521 ± 0.0051 µM	0.0187 ± 0.0034 µM		
CNc1nc(-c2ccccc2)c(C#N)c(-c2ccccc2)n1 [19a]	0.711 ± 0.043 µM	0.00914 ± 0.00221 µM		Exp relative binding affinity (ΔΔGbind) ([2]; Lig 2 relative to Lig 1 = 19ad): -0.66 kcal/mol; Exp absolute binding affinity (ΔGbind) [2]: -45.86 kJ/mol
CNc1nc(-c2ccccc2)c(C#N)c(-c2ccc(OC)cc2)n1 [19ab]		0.0575 ± 0.0027 µM		Exp absolute binding affinity (ΔGbind) [2]: -41.3 kJ/mol
COc1ccc(-c2nc(Nc3ccccc3)nc(-c3ccccc3)c2C#N)cc1 [19ac]	0.0514 ± 0.0037 µM		0.186 ± 0.015 µM	
CNc1nc(-c2ccccc2)c(C#N)c(-c2ccc(C)cc2)n1 [19ad]		0.028 ± 0.0093 µM	0.474 ± 0.032 µM	Exp absolute binding affinity (ΔGbind) [2]: -43.1 kJ/mol
Cc1ccc(-c2nc(Nc3ccccc3)nc(-c3ccccc3)c2C#N)cc1 [19ae]	0.157 ± 0.016 µM	0.0379 ± 0.0057 µM		Ki [1, 7]: 0.158 µM
CCNc1nc(-c2ccccc2)c(C#N)c(-c2cc(Cl)cc(Cl)c2)n1 [19ak]		0.135 ± 0.02 µM		Ki [2, 6]: 0.136 µM
CNc1nc(-c2ccccc2)c(C#N)c(-c2cc(OC)cc(OC)c2)n1 [19am]	0.0115 ± 0.0047 µM	0.011 ± 0.0008 µM	0.06 ± 0.0051 µM	Exp relative binding affinity (ΔΔGbind) ([2]; Lig 2 relative to Lig 1 = 19a): 0,11 kcal/mol; Exp relative binding affinity (ΔΔGbind) ([2]; Lig 2 relative to Lig 1 = 19ab): -0.98 kcal/mol; Exp absolute binding affinity (ΔGbind) [2]: -45.4 kJ/mol
COc1cc(OC)cc(-c2nc(Nc3ccccc3)nc(-c3ccccc3)c2C#N)c1 [19an]	0.0173 ± 0.0019 µM		0.064 ± 0.0096 µM	
CCNc1nc(-c2ccccc2)c(C#N)c(-c2ccc3c(c2)OCO3)n1 [19ap]	0.894 ± 0.042 µM	0.0067 ± 0.00067 µM	0.217 ± 0.018 µM	Ki [1, 7]: 0.895 µM

Compound	Ki [1, 4]	Ki [2, 5]	Ki [3]	other results
CNc1nc(-c2ccccc2)c(C#N)c(-c2cc(OC)c(OC)c(OC)c2)n1 [19ar]	0.00363 ± 0.00088 µM	0.0117 ± 0.0031 µM		
COc1cc(-c2nc(Nc3ccccc3)nc(-c3ccccc3)c2C#N)cc(OC)c1OC [19as]	0.0158 ± 0.0037 µM	0.0765 ± 0.0091 µM		
CNc1nc(-c2ccccc2)c(C#N)c(-c2ccco2)n1 [19at]	0.401 ± 0.025 µM	0.00666 ± 0.0024 µM		Exp relative binding affinity (ΔΔGbind) ([2]; Lig 2 relative to Lig 1 = 19a): -0.19 kcal/mol; Exp relative binding affinity (ΔΔGbind) ([2]; Lig 2 relative to Lig 1 = 19ax): -4.33 kcal/mol; Exp absolute binding affinity (ΔGbind) [2]: -46.65 kJ/mol; Ki [1, 7]: 0.402 µM
N#Cc1c(-c2ccccc2)nc(Nc2ccccc2)nc1-c1cccs1 [19aw]	0.33 ± 0.027 µM	0.0423 ± 0.0046 µM		
CNc1nc(-c2ccccc2)c(C#N)c(-c2ccoc2)n1 [19ax]				Exp absolute binding affinity (ΔGbind) [2]: -28.5 kJ/mol
N#Cc1c(-c2ccccc2)nc(Nc2ccccc2)nc1-c1ccoc1 [19ay]	0.368 µM			
CCNc1nc(-c2ccccc2)c(C#N)c(-c2ccccc2)n1 [19b]	0.357 ± 0.021 µM	0.00582 ± 0.00116 µM		
N#Cc1c(-c2ccccc2)nc(Nc2ccccc2)nc1-c1ccsc1 [19ba]	0.102 ± 0.027 µM			
CNc1nc(-c2ccccc2)c(C#N)c(-c2ccncc2)n1 [19bb]		0.0569 ± 0.0067 µM		Exp relative binding affinity (ΔΔGbind) ([2]; Lig 2 relative to Lig 1 = 19a): 1.08 kcal/mol; Exp absolute binding affinity (ΔGbind) [2]: -41.3 kJ/mol
N#Cc1c(-c2ccccc2)nc(Nc2ccccc2)nc1-c1cccnc1 [19bf]	0.0271 ± 0.0057 µM		0.0294 ± 0.004 µM	
N#Cc1c(-c2ccccc2)nc(Nc2ccccc2)nc1-c1ccccc1 [19c]	0.0551 ± 0.0043 µM	0.0456 ± 0.0067 µM		
CNc1nc(-c2ccccc2)c(C#N)c(-c2ccccc2F)n1 [19d]		0.0295 ± 0.0023 µM	0.0478 ± 0.0038 µM	Exp relative binding affinity (ΔΔGbind) ([2]; Lig 2 relative to Lig 1 = 19a): 0.69 kcal/mol; Exp absolute binding affinity (ΔGbind) [2]: -42.97 kJ/mol
CNc1nc(-c2ccccc2)c(C#N)c(-c2cccc(F)c2)n1 [19j]		0.0285 ± 0.0027 µM	0.358 ± 0.027 µM	Exp relative binding affinity (ΔΔGbind) ([2]; Lig 2 relative to Lig 1 = 19a): 0.67 kcal/mol; Exp relative binding affinity (ΔΔGbind) ([2]; Lig 2 relative to Lig 1 = 19s): 1.34 kcal/mol; Exp relative binding affinity (ΔΔGbind) ([2]; Lig 2 relative to Lig 1 = 19v): 0.12 kcal/mol; Exp absolute binding affinity (ΔGbind) [2]: -43.05 kJ/mol
CCNc1nc(-c2ccccc2)c(C#N)c(-c2cccc(Cl)c2)n1 [19m]	0.295 ± 0.027 µM	0.0051 ± 0.0018 µM		
N#Cc1c(-c2ccccc2)nc(Nc2ccccc2)nc1-c1cccc(Cl)c1 [19n]	0.0463 ± 0.0025 µM			
CNc1nc(-c2ccccc2)c(C#N)c(-c2cccc(O)c2)n1 [19o]	0.105 ± 0.008 µM	0.00248 ± 0.00071 µM		
CNc1nc(-c2ccccc2)c(C#N)c(-c2cccc(OC)c2)n1 [19q]	0.0826 ± 0.0049 µM	0.0132 ± 0.0041 µM		
COc1cccc(-c2nc(Nc3ccccc3)nc(-c3ccccc3)c2C#N)c1 [19r]	0.133 ± 0.011 µM	0.0955 ± 0.0117 µM		
N#Cc1cccc(-c2nc(Nc3ccccc3)nc(-c3ccccc3)c2C#N)c1 [19u]		0.0182 ± 0.0031 µM	0.0164 ± 0.0022 µM	
N#Cc1c(-c2ccccc2)nc(Nc2ccccc2)nc1-c1ccc(F)cc1 [19w]		0.0363 ± 0.0041 µM	0.0517 ± 0.0031 µM	
